{"source": "patent US9737502B2", "about": "“Calebin A for hepatic steatosis” (SAMI LABS LIMITED, priority 2011, dated 2017)", "key": {"IL-1β": {"system": "IL-1β", "test": "Extracellular IL-1β in LPS-stimulated murine neutrophils", "type": "cell-based", "conditions": "100 μg/ml"}, "TNF-α": {"system": "TNF-α", "test": "Intracellular TNF-α in LPS-stimulated murine neutrophils (flow cytometry)", "type": "cell-based", "conditions": "100 μg/ml", "protocol": "The present inventors also adduce extra evidence to support the ability of Calebin A to suppress intracellular TNF and extracellular IL-1β in murine neutrophil systems (Table II, Table III). Neutrophils are isolated by histopaque gradient method tested for their ability to produce in vitro TNF-α following stimulation with Lipopolysaccharide (LPS). The cells were incubated with phycoerythrin (PE)-labeled anti-mouse TNF-α in the dark, and after being washed with sterile PBS, samples were resuspended in PBS (pH 7.4) and acquired directly on the flow cytometer (BDLSR; Becton Dickinson). A fluorescence trigger was set on the PE […] parameter of the gated neutrophil populations (10,000 events). Rolipram at 100 μg/ml was used as standard inhibitor of TNF-α in this study. Fluorescence compensation, data analysis, and data presentation were performed using Cell Quest Pro software (Becton Dickinson)."}}, "data": [{"smiles": "COc1ccc(C2CNC(=O)C2)cc1OC1CCCC1", "note": "(stereo not shown) [Rolipram, reference compound]", "values": [{"measurement": "% Activity (suppression of IL-1 β expression)", "setting": "IL-1β", "value": 56.52, "unit": "%↓"}, {"measurement": "IL-1β Concentration", "setting": "IL-1β; LPS Control 51.80 ± 2.18", "value": "22.52 ± 1.60", "unit": "pg/mL"}, {"measurement": "% Activity (suppression of TNF-α expression)", "setting": "TNF-α", "value": 72.13, "unit": "%↓"}, {"measurement": "Expression of TNF-α Mean ± S.E", "setting": "TNF-α; LPS Control 2.62 ± 0.01", "value": "0.73 ± 0.09"}]}]}
